Results reported in patent US11726083B2, “Method for testing drug response of cardiomyocytes” (Myoridge Co. Ltd., priority 2017, dated 2023).
Like-named read-outs stand apart in the source and are kept apart here.

Tested on: cardiomyocytes prepared by inducing differentiation of a human iPS cell line (253G1)
Details: for rate of change in Ca^2+ duration / rate of change in heart rate: 100% = no change
[1] = sample 5M: 300 μM, no hemoglobin, liquid-surface distance 6.67 mm
[2] = sample 5N: 300 μM, 2.0% by mass of hemoglobin, liquid-surface distance 1.0 mm
[3] = sample 5P: 500 μM, 2.0% by mass of hemoglobin, liquid-surface distance 1.0 mm
[4] = sample 2A: 100 nM, culture medium not containing hemoglobin, liquid-surface distance 6.67 mm
[5] = sample 2C: 100 nM, 0.5 mass % hemoglobin, liquid-surface distance 6.67 mm
[6] = sample 2D: 1000 nM, 0.5 mass % hemoglobin, liquid-surface distance 6.67 mm
[7] = sample 2E: 100 nM, 1.0 mass % hemoglobin, liquid-surface distance 6.67 mm
[8] = sample 2F: 1000 nM, 1.0 mass % hemoglobin, liquid-surface distance 6.67 mm
[9] = sample 3A: 100 nM, liquid-surface distance 8.33 mm
[10] = sample 3C: 100 nM, liquid-surface distance 6.67 mm
[11] = sample 3E: 100 nM, liquid-surface distance 5.00 mm
[12] = sample 3G: 100 nM, liquid-surface distance 3.33 mm
[13] = sample 3H: 1000 nM, liquid-surface distance 3.33 mm
[14] = sample 3I: 100 nM, liquid-surface distance 1.67 mm
[15] = sample 3J: 1000 nM, liquid-surface distance 1.67 mm
[16] = sample 4A: 100 nM, control container (polystyrene), liquid-surface distance 6.67 mm
[17] = sample 4C: 100 nM, oxygen-permeable container (VECELL 96-well plate), liquid-surface distance 6.67 mm

hemoglobin: bovine hemoglobin (Nacalai tesque 17553-92), oxygen carrier added to the culture medium
occurrence of the pulsation arrest of the cardiomyocytes during the drug response testing (0.5 or 1.0 mass % hemoglobin added to the culture medium, isoproterenol 100/1000 nM, liquid-surface distance 6.67 mm (FIG. 3)): suppressed

Cc1cccc(CCN2CCC(C(=O)c3ccc(NS(C)(=O)=O)cc3)CC2)n1 [E-4031]
pulsation (pulsation arrest) (sample 5E: 0.1 μM, no hemoglobin, liquid-surface distance 6.67 mm): did not stop | pulsation (pulsation arrest) (sample 5F: 0.1 μM, 0.5% by mass of hemoglobin, liquid-surface distance 1.67 mm): did not stop | pulsation (pulsation arrest) (sample 5G: 0.3 μM, no hemoglobin, liquid-surface distance 6.67 mm): stopped at a high frequency | pulsation (pulsation arrest) (sample 5H: 0.3 μM, 0.5% by mass of hemoglobin, liquid-surface distance 1.67 mm): did not stop

CC(C)(C)c1ccc(C(O)CCCN2CCC(C(O)(c3ccccc3)c3ccccc3)CC2)cc1 (stereo not shown) [terfenadine]
pulsation (pulsation arrest) (sample 5I: 0.1 μM, no hemoglobin, liquid-surface distance 6.67 mm): did not stop | pulsation (pulsation arrest) (sample 5J: 0.1 μM, 0.5% by mass of hemoglobin, liquid-surface distance 1.67 mm): did not stop | pulsation (pulsation arrest) (sample 5K: 0.7 μM, no hemoglobin, liquid-surface distance 6.67 mm): stopped at a high frequency | pulsation (pulsation arrest) (sample 5L: 0.7 μM, 0.5% by mass of hemoglobin, liquid-surface distance 1.67 mm): did not stop | rate of change in Ca^2+ duration (sample 6A: 0.3 μM, 0.5% by mass of hemoglobin, liquid-surface distance 1.67 mm): about 135% | rate of change in Ca^2+ duration (sample 6B: 0.5 μM, 0.5% by mass of hemoglobin, liquid-surface distance 1.67 mm): about 170%

Cc1[nH]c(=O)c(C#N)cc1-c1ccncc1 [milrinone]
expected drug response (tachycardic response) [1]: not detected | pulsation (pulsation arrest) [1]: did not stop | rate of change in heart rate [1]: 79% | expected drug response [2]: detected | pulsation (pulsation arrest) [2]: did not stop | rate of change in heart rate [2]: 118% | pulsation (pulsation arrest) (sample 5O: 500 μM, no hemoglobin, liquid-surface distance 6.67 mm): stopped at a high frequency | expected drug response (tachycardic response) [3]: detected | pulsation (pulsation arrest) [3]: did not stop | rate of change in heart rate [3]: 154%

CC(C)NCC(O)c1ccc(O)c(O)c1 (stereo not shown) [isoproterenol]
expected drug response (tachycardic response) [4]: detected | pulsation (pulsation arrest) [4]: did not stop | pulsation (pulsation arrest) (sample 2B: 1000 nM, culture medium not containing hemoglobin, liquid-surface distance 6.67 mm): stopped at a high frequency | expected drug response [5]: detected | pulsation (pulsation arrest) [5]: did not stop | expected drug response [6]: detected | pulsation (pulsation arrest) [6]: did not stop at all | expected drug response [7]: detected | pulsation (pulsation arrest) [7]: did not stop | expected drug response [8]: detected | pulsation (pulsation arrest) [8]: did not stop at all | expected drug response (tachycardic response) [9]: detected | pulsation (pulsation arrest) [9]: did not stop | pulsation (pulsation arrest) (sample 3B: 1000 nM, liquid-surface distance 8.33 mm): stopped at a high frequency | expected drug response [10]: detected | pulsation (pulsation arrest) [10]: did not stop | pulsation (pulsation arrest) (sample 3D: 1000 nM, liquid-surface distance 6.67 mm): stopped at a high frequency | expected drug response [11]: detected | pulsation (pulsation arrest) [11]: did not stop | frequency of the occurrence of the pulsation arrest (sample 3F: 1000 nM, liquid-surface distance 5.00 mm): about 50% | expected drug response [12]: detected | pulsation (pulsation arrest) [12]: did not stop | expected drug response [13]: detected | pulsation (pulsation arrest) [13]: hardly stopped | expected drug response [14]: detected | pulsation (pulsation arrest) [14]: did not stop | expected drug response [15]: detected | pulsation (pulsation arrest) [15]: did not stop at all | expected drug response (tachycardic response) [16]: detected | pulsation (pulsation arrest) [16]: did not stop | pulsation (pulsation arrest) (sample 4B: 1000 nM, control container (polystyrene), liquid-surface distance 6.67 mm): stopped at a high frequency | expected drug response [17]: detected | pulsation (pulsation arrest) [17]: did not stop | pulsation (pulsation arrest) (sample 4D: 1000 nM, oxygen-permeable container (VECELL 96-well plate), liquid-surface distance 6.67 mm): stopped only at a low frequency
